Measurements published in ChEMBL document CHEMBL1151058, “Synthesis and structure-activity relationships of novel THF 1-methylcarbapenems” (1997).
In brackets after ≈: the same amount, converted by molar mass.

Assays:
Format in all cases: functional
Sus scrofa = species on record: Sus scrofa; assay: Relative hydrolysis was measured by hog renal dehydropeptidase (DHP).
Escherichia coli [1] = assay: In vitro minimum inhibitory concentration required against Escherichia coli GC 2205 strain
[2] = test system: Stenotrophomonas maltophilia; assay: In vitro minimum inhibitory concentration required against Xanthomonas maltophilia GC 562 strain
Enterobacter cloacae = assay: In vitro minimum inhibitory concentration required against Enterobacter cloacae GC 2209 strain
Staphylococcus aureus [3] = assay: In vitro minimum inhibitory concentration required against Staphylococcus aureus ATCC 29213 strain
Pseudomonas aeruginosa [4] = assay: In vitro minimum inhibitory concentration required against Pseudomonas aeruginosa ATCC 27853 strain
Morganella morganii = assay: In vitro minimum inhibitory concentration required against Morganella morganii GC 2213 strain
Enterococcus faecium = assay: In vitro minimum inhibitory concentration required against Enterococcus faecium GC 1182 strain
Enterococcus faecalis = assay: In vitro minimum inhibitory concentration required against Enterococcus faecalis GC 842 strain
[5] = test system: Acinetobacter calcoaceticus; assay: In vitro minimum inhibitory concentration required against Acinetobacter calcoaceticus GC 756 strain
Staphylococcus aureus [6] = assay: In vitro minimum inhibitory concentration required against Staphylococcus aureus GC 2220 MRSA strain
Escherichia coli [7] = assay: In vitro minimum inhibitory concentration required against Escherichia coli ATCC 25922 strain
Pseudomonas aeruginosa [8] = assay: In vitro minimum inhibitory concentration required against Pseudomonas aeruginosa GC 1544 oprD- strain
Escherichia coli [9] = assay: In vitro minimum inhibitory concentration required against Escherichia coli GC 1792 strain
Citrobacter freundii = assay: In vitro minimum inhibitory concentration required against Citrobacter freundii GC 2211 strain
Escherichia coli [10] = assay: Effective single subcutaneous dose required for inhibition of Escherichia coli in mice
Escherichia coli [11] = assay: Effective single oral dose required for inhibition of Escherichia coli in mice
[12] = Enterococcus faecium, read-out: MIC
[13] = Enterococcus faecalis, read-out: MIC
[14] = Acinetobacter calcoaceticus, read-out: MIC
[15] = Escherichia coli, sc, read-out: ED50
[16] = Escherichia coli, po, read-out: ED50

## C[C@H]1C(SC2COC(CN)C2)=C(C(=O)O)N2C(=O)[C@H]([C@@H](C)O)C12 (stereo in doubt; 3b) [listing 1 of 2 here]
Sus scrofa
  Relative hydrolysis: 10

## C[C@@H](O)[C@H]1C(=O)N2C(C(=O)O)=C(S[C@@H]3CN[C@H](C(=O)N(C)C)C3)[C@H](C)[C@H]12 [MEROPENEM]
Escherichia coli [1]
  MIC: ≤ 0.06 µg/mL
[2]
  MIC: > 128 µg/mL
Enterobacter cloacae
  MIC: ≤ 0.06 µg/mL
Staphylococcus aureus [3]
  MIC: ≤ 0.06 µg/mL
Pseudomonas aeruginosa [4]
  MIC: 0.25 µg/mL (≈ 0.652 µM)
Morganella morganii
  MIC: ≤ 0.06 µg/mL
Enterococcus faecium; [12]
  MIC: > 128 µg/mL
Enterococcus faecalis; [13]
  MIC: 2 µg/mL (≈ 5.22 µM)
Sus scrofa
  Relative hydrolysis: 28
[5]; [14]
  MIC: 0.5 µg/mL (≈ 1.3 µM)
Staphylococcus aureus [6]
  MIC: 8 µg/mL (≈ 20.9 µM)
Escherichia coli [7]
  MIC: ≤ 0.06 µg/mL
Pseudomonas aeruginosa [8]
  MIC: 4 µg/mL (≈ 10.4 µM)
Escherichia coli [9]
  MIC: ≤ 0.06 µg/mL
Citrobacter freundii
  MIC: ≤ 0.06 µg/mL

## C[C@H]1C(S[C@@H]2COC[C@@H]2CN)=C(C(=O)O)N2C(=O)[C@H]([C@@H](C)O)C12 (some centres undefined)
Sus scrofa
  Relative hydrolysis: < 1

## C[C@H]1C(S[C@@H]2CO[C@H](CN)C2)=C(C(=O)O)N2C(=O)[C@H]([C@@H](C)O)C12 (some centres undefined)
Escherichia coli [1]
  MIC: 0.12 µg/mL (≈ 0.35 µM)
[2]
  MIC: > 128 µg/mL
Enterobacter cloacae
  MIC: ≤ 0.06 µg/mL
Staphylococcus aureus [3]
  MIC: ≤ 0.06 µg/mL
Pseudomonas aeruginosa [4]
  MIC: 8 µg/mL (≈ 23.4 µM)
Morganella morganii
  MIC: 0.5 µg/mL (≈ 1.46 µM)
Enterococcus faecium; [12]
  MIC: 128 µg/mL (≈ 374 µM)
Enterococcus faecalis; [13]
  MIC: 4 µg/mL (≈ 11.7 µM)
Sus scrofa
  Relative hydrolysis: 7.3
[5]; [14]
  MIC: 2 µg/mL (≈ 5.84 µM)
Staphylococcus aureus [6]
  MIC: 4 µg/mL (≈ 11.7 µM)
Escherichia coli [7]
  MIC: ≤ 0.06 µg/mL
Pseudomonas aeruginosa [8]
  MIC: 16 µg/mL (≈ 46.7 µM)
Escherichia coli [9]
  MIC: ≤ 0.06 µg/mL
Citrobacter freundii
  MIC: 0.12 µg/mL (≈ 0.35 µM)

## C[C@H]1C(S[C@H]2CO[C@@H](CN)C2)=C(C(=O)O)N2C(=O)[C@H]([C@@H](C)O)C12 (some centres undefined)
Escherichia coli [1]
  MIC: ≤ 0.06 µg/mL
[2]
  MIC: > 128 µg/mL
Enterobacter cloacae
  MIC: ≤ 0.06 µg/mL
Staphylococcus aureus [3]
  MIC: ≤ 0.06 µg/mL
Pseudomonas aeruginosa [4]
  MIC: 16 µg/mL (≈ 46.7 µM)
Morganella morganii
  MIC: 0.5 µg/mL (≈ 1.46 µM)
Enterococcus faecium; [12]
  MIC: > 128 µg/mL
Enterococcus faecalis; [13]
  MIC: 4 µg/mL (≈ 11.7 µM)
Sus scrofa
  Relative hydrolysis: 10
[5]; [14]
  MIC: 2 µg/mL (≈ 5.84 µM)
Staphylococcus aureus [6]
  MIC: 8 µg/mL (≈ 23.4 µM)
Escherichia coli [7]
  MIC: ≤ 0.06 µg/mL
Pseudomonas aeruginosa [8]
  MIC: 32 µg/mL (≈ 93.5 µM)
Escherichia coli [9]
  MIC: ≤ 0.06 µg/mL
Citrobacter freundii
  MIC: 0.12 µg/mL (≈ 0.35 µM)

## C[C@H]1C(SC2COC(CN)C2)=C(C(=O)O)N2C(=O)[C@H]([C@@H](C)O)C12 (stereo in doubt; 3a) [listing 1 of 2 here]
Escherichia coli [1]
  MIC: ≤ 0.06 µg/mL
Enterobacter cloacae
  MIC: ≤ 0.06 µg/mL
Staphylococcus aureus [3]
  MIC: ≤ 0.06 µg/mL
Escherichia coli [10]; [15]
  ED50: 0.27 mg/kg
Escherichia coli [11]; [16]
  ED50: 3.7 mg/kg
[5]; [14]
  MIC: 1 µg/mL (≈ 2.92 µM)
Escherichia coli [7]
  MIC: ≤ 0.06 µg/mL
Escherichia coli [9]
  MIC: ≤ 0.06 µg/mL
Citrobacter freundii
  MIC: ≤ 0.06 µg/mL

## C[C@H]1C(SC2COC(CN)C2)=C(C(=O)O)N2C(=O)[C@H]([C@@H](C)O)C12 (stereo in doubt; 3b) [listing 2 of 2 here]
Enterococcus faecium
  MIC: 128 µg/mL (≈ 374 µM)
Enterococcus faecalis
  MIC: 2 µg/mL (≈ 5.84 µM)
Escherichia coli [10]
  ED50: 0.28 mg/kg
Escherichia coli [11]
  ED50: 3.5 mg/kg
[5]
  MIC: 2 µg/mL (≈ 5.84 µM)

## C[C@H]1C(S[C@H]2COC[C@H]2CN)=C(C(=O)O)N2C(=O)[C@H]([C@@H](C)O)C12 (some centres undefined)
Enterobacter cloacae
  MIC: ≤ 0.06 µg/mL
Staphylococcus aureus [3]
  MIC: ≤ 0.06 µg/mL
Sus scrofa
  Relative hydrolysis: < 1
Escherichia coli [7]
  MIC: ≤ 0.06 µg/mL
Escherichia coli [9]
  MIC: ≤ 0.06 µg/mL

## C[C@H]1C(S[C@H]2CCO[C@@H]2CN)=C(C(=O)O)N2C(=O)[C@H]([C@@H](C)O)C12 (some centres undefined)
Escherichia coli [1]
  MIC: 0.25 µg/mL (≈ 0.73 µM)
[2]
  MIC: > 64 µg/mL
Enterobacter cloacae
  MIC: 0.5 µg/mL (≈ 1.46 µM)
Staphylococcus aureus [3]
  MIC: 0.06 µg/mL (≈ 0.175 µM)
Pseudomonas aeruginosa [4]
  MIC: 16 µg/mL (≈ 46.7 µM)
Morganella morganii
  MIC: 2 µg/mL (≈ 5.84 µM)
Enterococcus faecium; [12]
  MIC: > 64 µg/mL
Enterococcus faecalis; [13]
  MIC: 8 µg/mL (≈ 23.4 µM)
Sus scrofa
  Relative hydrolysis: 18
Staphylococcus aureus [6]
  MIC: 4 µg/mL (≈ 11.7 µM)
Escherichia coli [7]
  MIC: 0.5 µg/mL (≈ 1.46 µM)
Pseudomonas aeruginosa [8]
  MIC: 32 µg/mL (≈ 93.5 µM)
Escherichia coli [9]
  MIC: 0.5 µg/mL (≈ 1.46 µM)
Citrobacter freundii
  MIC: 1 µg/mL (≈ 2.92 µM)

## C[C@H]1C(S[C@H]2CCO[C@H]2CN)=C(C(=O)O)N2C(=O)[C@H]([C@@H](C)O)C12 (some centres undefined)
Escherichia coli [1]
  MIC: 0.5 µg/mL (≈ 1.46 µM)
[2]
  MIC: > 128 µg/mL
Enterobacter cloacae
  MIC: 0.25 µg/mL (≈ 0.73 µM)
Staphylococcus aureus [3]
  MIC: 0.12 µg/mL (≈ 0.35 µM)
Pseudomonas aeruginosa [4]
  MIC: 4 µg/mL (≈ 11.7 µM)
Morganella morganii
  MIC: 2 µg/mL (≈ 5.84 µM)
Enterococcus faecium; [12]
  MIC: 128 µg/mL (≈ 374 µM)
Enterococcus faecalis; [13]
  MIC: 4 µg/mL (≈ 11.7 µM)
Sus scrofa
  Relative hydrolysis: 4.5
[5]; [14]
  MIC: 4 µg/mL (≈ 11.7 µM)
Staphylococcus aureus [6]
  MIC: 8 µg/mL (≈ 23.4 µM)
Escherichia coli [7]
  MIC: 0.5 µg/mL (≈ 1.46 µM)
Pseudomonas aeruginosa [8]
  MIC: 16 µg/mL (≈ 46.7 µM)
Escherichia coli [9]
  MIC: 0.5 µg/mL (≈ 1.46 µM)
Citrobacter freundii
  MIC: 0.5 µg/mL (≈ 1.46 µM)

## C[C@H]1C(S[C@H]2CO[C@H](CN)C2)=C(C(=O)O)N2C(=O)[C@H]([C@@H](C)O)C12 (some centres undefined)
Escherichia coli [1]
  MIC: ≤ 0.06 µg/mL
[2]
  MIC: > 128 µg/mL
Enterobacter cloacae
  MIC: ≤ 0.06 µg/mL
Staphylococcus aureus [3]
  MIC: ≤ 0.06 µg/mL
Pseudomonas aeruginosa [4]
  MIC: 2 µg/mL (≈ 5.84 µM)
Morganella morganii
  MIC: 0.25 µg/mL (≈ 0.73 µM)
Enterococcus faecium; [12]
  MIC: > 128 µg/mL
Enterococcus faecalis; [13]
  MIC: 2 µg/mL (≈ 5.84 µM)
[5]; [14]
  MIC: 1 µg/mL (≈ 2.92 µM)
Staphylococcus aureus [6]
  MIC: 8 µg/mL (≈ 23.4 µM)
Escherichia coli [7]
  MIC: ≤ 0.06 µg/mL
Pseudomonas aeruginosa [8]
  MIC: 8 µg/mL (≈ 23.4 µM)
Escherichia coli [9]
  MIC: ≤ 0.06 µg/mL
Citrobacter freundii
  MIC: ≤ 0.06 µg/mL

## C[C@@H](O)[C@H]1C(=O)N2C(C(=O)O)=C(SCCNC=N)C[C@H]12 [IMIPENEM ANHYDROUS]
Enterobacter cloacae
  MIC: ≤ 0.06 µg/mL
Staphylococcus aureus [3]
  MIC: ≤ 0.06 µg/mL
Sus scrofa
  Relative hydrolysis: 100
Escherichia coli [10]; [15]
  ED50: 0.67 mg/kg
Escherichia coli [11]; [16]
  ED50: 79 mg/kg
Escherichia coli [9]
  MIC: ≤ 0.06 µg/mL

## C[C@H]1C(SC2COC(CN)C2)=C(C(=O)O)N2C(=O)[C@H]([C@@H](C)O)C12 (stereo in doubt; 3a) [listing 2 of 2 here]
Sus scrofa
  Relative hydrolysis: 19

## C[C@H]1C(S[C@H]2COC[C@@H]2CN)=C(C(=O)O)N2C(=O)[C@H]([C@@H](C)O)C12 (some centres undefined)
Escherichia coli [1]
  MIC: 0.5 µg/mL (≈ 1.46 µM)
[2]
  MIC: > 128 µg/mL
Enterobacter cloacae
  MIC: 0.5 µg/mL (≈ 1.46 µM)
Staphylococcus aureus [3]
  MIC: 0.12 µg/mL (≈ 0.35 µM)
Pseudomonas aeruginosa [4]
  MIC: 16 µg/mL (≈ 46.7 µM)
Morganella morganii
  MIC: 4 µg/mL (≈ 11.7 µM)
Enterococcus faecium; [12]
  MIC: > 128 µg/mL
Enterococcus faecalis; [13]
  MIC: 8 µg/mL (≈ 23.4 µM)
Sus scrofa
  Relative hydrolysis: 37
[5]; [14]
  MIC: 8 µg/mL (≈ 23.4 µM)
Staphylococcus aureus [6]
  MIC: 16 µg/mL (≈ 46.7 µM)
Escherichia coli [7]
  MIC: 0.5 µg/mL (≈ 1.46 µM)
Pseudomonas aeruginosa [8]
  MIC: 64 µg/mL (≈ 187 µM)
Escherichia coli [9]
  MIC: 0.5 µg/mL (≈ 1.46 µM)
Citrobacter freundii
  MIC: 1 µg/mL (≈ 2.92 µM)

## C[C@@H](O)[C@H]1C(=O)N2C(C(=O)O)=C(S[C@@H]3CCO[C@@H]3CN)[C@H](C)[C@H]12
Sus scrofa
  Relative hydrolysis: 8.5
Escherichia coli [10]; [15]
  ED50: 0.34 mg/kg
Escherichia coli [11]; [16]
  ED50: 3.8 mg/kg

## C[C@H]1C(S[C@@H]2COC[C@H]2CN)=C(C(=O)O)N2C(=O)[C@H]([C@@H](C)O)C12 (some centres undefined)
Escherichia coli [1]
  MIC: 0.25 µg/mL (≈ 0.73 µM)
[2]
  MIC: > 128 µg/mL
Enterobacter cloacae
  MIC: 0.25 µg/mL (≈ 0.73 µM)
Staphylococcus aureus [3]
  MIC: 0.12 µg/mL (≈ 0.35 µM)
Pseudomonas aeruginosa [4]
  MIC: 32 µg/mL (≈ 93.5 µM)
Morganella morganii
  MIC: 4 µg/mL (≈ 11.7 µM)
Enterococcus faecium; [12]
  MIC: > 128 µg/mL
Enterococcus faecalis; [13]
  MIC: 8 µg/mL (≈ 23.4 µM)
Sus scrofa
  Relative hydrolysis: 39
[5]; [14]
  MIC: 16 µg/mL (≈ 46.7 µM)
Staphylococcus aureus [6]
  MIC: 16 µg/mL (≈ 46.7 µM)
Escherichia coli [7]
  MIC: 0.25 µg/mL (≈ 0.73 µM)
Pseudomonas aeruginosa [8]
  MIC: 64 µg/mL (≈ 187 µM)
Escherichia coli [9]
  MIC: 0.25 µg/mL (≈ 0.73 µM)
Citrobacter freundii
  MIC: 1 µg/mL (≈ 2.92 µM)
